The results in this text go back to patent US10532018B2, “Method of whitening skin using tranexamic acid-peptide having skin whitening activity” (ANPEP INC., priority 2016, dated 2020).

In the first data set the test system is B16F1 cells. Briefly: Screening of tranexamic acid-peptides: intracellular melanin production in α-MSH-treated melanocytes. The class given is cell-based, mouse. To be noted: α-MSH 20 μg/mL, 3 days, intracellular melanin at 490 nm; Control (No Treatment) = 100; test concentration not stated (1-250 μg/mL tested). How it is done:
B16F1 cells, which are mouse melanocytes, were cultured in Dulbecco's modified Eagle's media (DMEM, Sigma), to which 10% fetal bovine serum (FBS, Sigma) was added, under 37° C. CO2 conditions. The cells were cultured in a 24-well plate at a concentration of 1×10^5 cells/well, and the attachment of cells was confirmed. Then, the control group was not treated with anything but only a solvent was added thereto, whereas a-MSH (20 μg/mL) was added to the positive control group. The remaining dishes were treated with α-MSH (20 μg/mL), 40 kinds of tranexamic acid-peptides, and the control group with Arbutin and AA2G, to a concentration of 1 μg/mL, 10 μg/mL, 100 μg/mL, and 250 μg/mL, respectively. Test materials were added to each dish and cultured for 3 days. After 3 days, the culture was removed by centrifugation, and the cells were lysed and intracellular melanin was collected, and observed at 490 nm to measure the amount of intracellular melanin production.
40 kinds of tranexamic acid-peptides were treated according to concentration, and their inhibitory effect against melanin production was measured.
Turning to Tranexamil-GP [Dipeptide-4 GP], the “α-MSH Inhibitory Ability (%)” value is listed as 80%.

For the molecule Tranexamil-VR [Dipeptide-36 VR], the “α-MSH Inhibitory Ability (%)” value was 70%.

For the molecule Tranexamil-GK [Dipeptide-29 GK], the “α-MSH Inhibitory Ability (%)” value came to 96%.

With Tranexamil-NA [Dipeptide-17 NA], the “α-MSH Inhibitory Ability (%)” value came to 79%.

Consider Tranexamil-SA [Dipeptide-13 SA], for which the “α-MSH Inhibitory Ability (%)” value worked out at 81%.

In the case of Tranexamil-MY [Dipeptide-8 MY], the “α-MSH Inhibitory Ability (%)” value worked out at 78%.

Turning to Tranexamil-SS [Dipeptide-19 SS], the “α-MSH Inhibitory Ability (%)” value was 80%.

With Tranexamil-SV [Dipeptide-37 SV], the “α-MSH Inhibitory Ability (%)” value came to 64%.

As for Tranexamil-VV [Dipeptide-24 VV], the “α-MSH Inhibitory Ability (%)” value is recorded as 72%.

Regarding `NC[C@H]1CC[C@H](C(=O)O)CC1` [TXA, tranexamic acid], the “α-MSH Inhibitory Ability (%)” value is 45%.

Tranexamil-PP [Dipeptide-35 PP]: the “α-MSH Inhibitory Ability (%)” value turned out to be 85%.

Regarding Tranexamil-MA [Dipeptide-10 MA], the “α-MSH Inhibitory Ability (%)” value amounted to 56%.

For Tranexamil-TA [Dipeptide-21 TA], the “α-MSH Inhibitory Ability (%)” value was 76%.

Consider Tranexamil-AH [Dipeptide-11 AH], for which the “α-MSH Inhibitory Ability (%)” value came out at 82%.

Take Tranexamil-VP [Dipeptide-25 VP]: the “α-MSH Inhibitory Ability (%)” value was 69%.

As for Tranexamil-NT [Dipeptide-40 NT], the “α-MSH Inhibitory Ability (%)” value was determined as 84%.

In the case of Tranexamil-KK [Dipeptide-6 KK], the “α-MSH Inhibitory Ability (%)” value stood at 83%.

With Tranexamil-AA [Dipeptide-26 AA], the “α-MSH Inhibitory Ability (%)” value is recorded as 92%.

Take Tranexamil-AR [Dipeptide-31 AR]: the “α-MSH Inhibitory Ability (%)” value is on record as 93%.

On to Tranexamil-KD [Dipeptide-16 KD], for which the “α-MSH Inhibitory Ability (%)” value turned out to be 81%.

Tranexamil-ES [Dipeptide-5 ES]: the “α-MSH Inhibitory Ability (%)” value was found to be 80%.

Regarding Tranexamil-RP [Dipeptide-32 RP], the “α-MSH Inhibitory Ability (%)” value is listed as 87%.

For Tranexamil-TS [Dipeptide-18 TS], the “α-MSH Inhibitory Ability (%)” value was 75%.

Regarding Tranexamil-GH [Dipeptide-9 GH], the “α-MSH Inhibitory Ability (%)” value was 70%.

For the molecule Tranexamil-AS [Dipeptide-1 AS], the “α-MSH Inhibitory Ability (%)” value was 98%.

In the case of Tranexamil-CC [Dipeptide-12 CC], the “α-MSH Inhibitory Ability (%)” value was found to be 83%.

Consider Tranexamil-PQ [Dipeptide-33 PQ], for which the “α-MSH Inhibitory Ability (%)” value is listed as 71%.

For Tranexamil-KV [Dipeptide-30 KV], the “α-MSH Inhibitory Ability (%)” value stood at 83%.

For Tranexamil-QG [Dipeptide-34 QG], the “α-MSH Inhibitory Ability (%)” value amounted to 85%.

As for Tranexamil-WE [Dipeptide-15 WE], the “α-MSH Inhibitory Ability (%)” value amounted to 78%.

Turning to Tranexamil-AT [Dipeptide-2 AT], the “α-MSH Inhibitory Ability (%)” value came out at 88%.

As to Tranexamil-EC [Dipeptide-20 EC], the “α-MSH Inhibitory Ability (%)” value was 61%.

With Tranexamil-PF [Dipeptide-22 PF], the “α-MSH Inhibitory Ability (%)” value is listed as 89%.

Consider Tranexamil-WA [Dipeptide-14 WA], for which the “α-MSH Inhibitory Ability (%)” value was determined as 65%.

Regarding Tranexamil-ET [Dipeptide-38 ET], the “α-MSH Inhibitory Ability (%)” value was determined as 52%.

For the molecule Tranexamil-CG [Dipeptide-39 CG], the “α-MSH Inhibitory Ability (%)” value came out at 92%.

With Tranexamil-HA [Dipeptide-28 HA], the “α-MSH Inhibitory Ability (%)” value worked out at 87%.

The subject of the next data set is mouse melanocytes. Briefly: Whitening effect: melanin production in α-MSH-treated melanocytes by visual inspection. Type of data set: cell-based. The conditions noted are these: images of melanocytes, similar concentrations, 3 days. How it is done:
According to a preferred embodiment of the present invention, the peptides of the present invention […] the melanin production in a concentration-dependent manner. […] Additionally, when cells were treated with 4 kinds of the tranexamic acid-peptides; the peptides, to which tranexamic acid was not bound; Arbutin; and AA2G at various concentrations (1μ, 10μ, 100μ, and 250μ), cultured for 3 days, and the absorbance of the cultures were measured at 490 nm and analyzed.
Tranexamic acid-peptides were treated according to concentration and their inhibitory effect against melanin production was measured. The mouse melanocytes were cultured in Dulbecco's modified Eagle's media (DMEM, Sigma) containing 10% fetal bovine serum ([…], Sigma) under 37° C. CO2 conditions.
The cells were cultured in a 24-well plate at a concentration of 1×10^5 cells/well, and the attachment of cells was confirmed. Then, the control group was not treated with anything but only a solvent was added thereto, whereas a-MSH ([…]) was added to the positive control group. The remaining dishes were treated with α-MSH (20 μg/mL), 4 kinds of tranexamic acid-peptides, and the control group with Arbutin and AA2G, to a concentration of 1 μg/mL, 10 μg/mL, 100 μg/mL, and 250μ), respectively. Test materials were added to each dish and cultured for 3 days. […]
For the molecule `OC[C@H]1O[C@@H](Oc2ccc(O)cc2)[C@H](O)[C@@H](O)[C@@H]1O` [Arbutin], the “cell number compared to α-MSH treatment” value is reported as “rapidly decreased”.

Another data set deals with skin pigmentation (melanin index). Put plainly: Clinical test of creams: skin pigmentation by Mexameter. The class given is in vivo, human. To be noted: 54 women, creams with 1% tranexamic acid-dipeptide or tranexamic acid, 2 times a day. From the text: In particular, a cream containing tranexamic acid was used as the positive control group and the standard base cream was used as the negative control group.
The face of each subject was divided into two parts vertically and the two kinds of creams prepared above were applied to each face. The subjects were required to continuously use the creams in the morning and evening, 2 times a day for 8 weeks after washing the face.
For the objective evaluation of changes in skin pigmentation before and after the use of the creams, the changes in pigmentation were measured using the Mexameter (CK, Germany) before the use of the creams, 2 weeks, 4 weeks, 6 weeks, and 8 weeks after the use of the creams.
As a result of the above experiment, the tranexamic acid-dipeptide with a greater effect between the two kinds of tranexamic acid-dipeptides, was selected and, as an attempt to reduce the content in the cream, a cream containing 0.5% tranexamic acid-dipeptide was prepared. Ten women subjects were collected and the 8-week clinical experiment was performed in the same manner as described above.
With `NC[C@H]1CC[C@H](C(=O)O)CC1` [TXA, tranexamic acid], the “decrease of the melanin index after 8 weeks” value was 11.4%.

The same data set, now with this note: ten women, cream with 0.5% tranexamic acid-dipeptide or tranexamic acid, 2 times a day.
In the case of `NC[C@H]1CC[C@H](C(=O)O)CC1` [TXA, tranexamic acid], the “decrease of the melanin index after 8 weeks” value was 10.2%.
